This note sets out measurements from ChEMBL document CHEMBL2380269, “Conformationally restricted homotryptamines. Part 6: indole-5-cycloalkyl methylamines as selective serotonin reuptake inhibitors” (Bioorg Med Chem Lett, 2013).

Test [1] deals with Sodium-dependent serotonin transporter (Homo sapiens, UniProt P31645). Put plainly: Displacement of [3H]citalopram from human SERT expressed in HEK293 cell membranes.
For test [2], the system named is HEK293. Put plainly: Ratio of IC50 for human DAT expressed in HEK293 cell membranes to IC50 for human SERT expressed in HEK293 cell membranes. The format is cell-based.
The test system of test [3] is HEK293. Nature of the test: Ratio of IC50 for human NET expressed in HEK293 cell membranes to IC50 for human SERT expressed in HEK293 cell membranes. The test is classed as cell-based.
Test [4] addresses T1, Sodium-dependent noradrenaline transporter (Homo sapiens, UniProt P23975). Nature of the test: Displacement of [3H]nisoxetine from human NET expressed in HEK293 cell membranes at 1 uM. A general note: In a radioligand displacement assay an active substance lowers the binding of a labelled ligand.
Test [5] deals with T2, Sodium-dependent dopamine transporter (Homo sapiens, UniProt Q01959). Put plainly: Displacement of [3H]WIN-35428 form human DAT expressed in HEK293 cell membranes at 1 uM.
In test [6] the target is T1, Sodium-dependent noradrenaline transporter. Put plainly: Displacement of [3H]nisoxetine from human NET expressed in HEK293 cell membranes.
For test [7], the target named is T2, Sodium-dependent dopamine transporter. Nature of the test: Displacement of [3H]WIN-35428 form human DAT expressed in HEK293 cell membranes.

The term IC50 denotes the point on the concentration scale where inhibition reaches its midpoint. Lower therefore signals greater potency. The term inhibition denotes the drop in the measured response relative to a control, in per cent.

Where only a bound is given, the exact number is not on record here.

T1 sequence (P23975 whole entry): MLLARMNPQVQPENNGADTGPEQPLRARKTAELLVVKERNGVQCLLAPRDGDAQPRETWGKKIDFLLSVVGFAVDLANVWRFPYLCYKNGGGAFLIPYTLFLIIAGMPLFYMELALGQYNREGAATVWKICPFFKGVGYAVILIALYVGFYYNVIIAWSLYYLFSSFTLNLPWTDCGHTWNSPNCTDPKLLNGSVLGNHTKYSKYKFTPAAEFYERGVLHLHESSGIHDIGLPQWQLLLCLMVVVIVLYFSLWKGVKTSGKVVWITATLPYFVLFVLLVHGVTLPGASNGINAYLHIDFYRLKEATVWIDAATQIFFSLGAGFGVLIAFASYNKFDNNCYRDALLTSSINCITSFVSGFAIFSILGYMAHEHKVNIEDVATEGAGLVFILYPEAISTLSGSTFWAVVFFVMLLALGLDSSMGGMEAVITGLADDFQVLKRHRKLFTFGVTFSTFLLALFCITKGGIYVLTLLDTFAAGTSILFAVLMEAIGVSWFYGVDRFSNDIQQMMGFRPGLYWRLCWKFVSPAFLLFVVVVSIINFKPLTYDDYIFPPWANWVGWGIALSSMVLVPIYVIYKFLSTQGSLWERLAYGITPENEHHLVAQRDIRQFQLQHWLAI
T2 sequence (Q01959 whole entry): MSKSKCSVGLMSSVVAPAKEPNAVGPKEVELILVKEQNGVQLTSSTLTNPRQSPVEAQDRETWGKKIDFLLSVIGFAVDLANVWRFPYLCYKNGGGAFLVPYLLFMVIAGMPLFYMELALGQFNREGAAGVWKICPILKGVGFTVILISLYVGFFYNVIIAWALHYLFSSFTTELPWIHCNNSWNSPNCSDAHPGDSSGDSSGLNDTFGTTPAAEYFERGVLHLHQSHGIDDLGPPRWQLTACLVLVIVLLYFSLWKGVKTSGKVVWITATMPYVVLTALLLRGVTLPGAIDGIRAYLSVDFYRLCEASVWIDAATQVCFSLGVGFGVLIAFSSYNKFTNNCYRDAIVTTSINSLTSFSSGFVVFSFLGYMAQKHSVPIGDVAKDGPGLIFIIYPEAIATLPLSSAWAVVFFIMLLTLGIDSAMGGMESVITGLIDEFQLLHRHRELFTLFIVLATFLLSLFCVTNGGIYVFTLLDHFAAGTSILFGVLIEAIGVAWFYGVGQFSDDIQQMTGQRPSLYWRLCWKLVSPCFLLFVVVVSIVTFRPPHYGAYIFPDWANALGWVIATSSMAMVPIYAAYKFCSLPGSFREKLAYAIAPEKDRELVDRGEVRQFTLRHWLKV
Sequence of Sodium-dependent serotonin transporter (P31645 whole entry): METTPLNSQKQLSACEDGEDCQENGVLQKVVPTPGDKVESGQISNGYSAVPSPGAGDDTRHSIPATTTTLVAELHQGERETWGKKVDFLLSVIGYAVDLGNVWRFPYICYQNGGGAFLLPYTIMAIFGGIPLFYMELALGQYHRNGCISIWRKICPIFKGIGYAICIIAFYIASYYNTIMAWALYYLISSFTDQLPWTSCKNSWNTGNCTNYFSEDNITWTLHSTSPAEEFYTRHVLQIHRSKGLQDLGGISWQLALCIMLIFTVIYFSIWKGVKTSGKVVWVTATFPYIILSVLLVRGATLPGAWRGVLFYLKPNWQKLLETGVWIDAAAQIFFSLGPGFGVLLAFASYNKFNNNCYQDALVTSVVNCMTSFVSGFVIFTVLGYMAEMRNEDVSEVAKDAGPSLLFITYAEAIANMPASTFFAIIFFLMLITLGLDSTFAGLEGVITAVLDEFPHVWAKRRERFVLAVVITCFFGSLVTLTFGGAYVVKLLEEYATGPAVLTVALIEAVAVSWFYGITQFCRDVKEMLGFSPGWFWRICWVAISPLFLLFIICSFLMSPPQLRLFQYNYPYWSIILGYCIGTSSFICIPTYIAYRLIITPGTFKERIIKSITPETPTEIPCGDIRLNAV

The molecule `CN(C)C[C@H]1C[C@@H]1c1c[nH]c2ccc(C#N)cc12` had an IC50 in test [1] of 0.56 nM.

For the molecule `CN(C)C[C@H]1CCC[C@H]1c1c[nH]c2ccc(C#N)cc12`, in test [1], the IC50 came out at 1.1 nM.

For the molecule `CN(C)C[C@H]1CCC[C@H]1c1ccc2[nH]cc(C#N)c2c1` (racemic), the Ratio IC50 in the test with HEK293 [2] and in the test with HEK293 [3] was more than 100 each time. In addition, the IC50 in test [1] was determined as 18 nM. Moreover, the inhibition in test [4] amounted to 68%; in test [5], 56%.

Take `CNC[C@H]1CCC[C@H]1c1ccc2[nH]cc(C#N)c2c1` (racemic): the Ratio IC50 in the test with HEK293 [2] and in the test on HEK293 [3] was 10 throughout. The IC50 in test [1] was found to be 64 nM; in test [6], 510 nM; in test [7], 660 nM. Further, the inhibition worked out at 78% in test [4] and 53% in test [5].

In test [1], `N#Cc1c[nH]c2ccc([C@@H]3CCC[C@H]3CN3CCCC3)cc12` (racemic) displayed an IC50 of 300 nM.

In test [1], `CN(Cc1ccccc1)C[C@@H]1CCC[C@H]1c1ccc2[nH]cc(C#N)c2c1` (racemic) had an IC50 of 140 nM.

For `CNC[C@@H]1CCC[C@H]1c1ccc2[nH]cc(C#N)c2c1` (racemic), the Ratio IC50 in the test on HEK293 [2] and in the test on HEK293 [3] was more than 100 each time. Also, the IC50 in test [1] is 4.3 nM; in test [6], 3700 nM; in test [7], 750 nM. Besides, the results for the inhibition in test [4] and in test [5] were 16% and 49%, respectively.

`CCN(C)C[C@@H]1CCC[C@H]1c1ccc2[nH]cc(C#N)c2c1` (racemic): in test [1], the IC50 was 200 nM.

On to `CCN(CC)C[C@@H]1CCC[C@H]1c1ccc2[nH]cc(C#N)c2c1` (racemic), for which the IC50 in test [1] was determined as 710 nM.

For the molecule `CCNC[C@@H]1CCC[C@H]1c1ccc2[nH]cc(C#N)c2c1` (racemic), the IC50 in test [1] was 260 nM.

Turning to `CN(C)C[C@H]1C[C@@H]1Cc1ccc2[nH]cc(C#N)c2c1` (racemic), the Ratio IC50 in the test on HEK293 [2] and with HEK293 [3] was more than 100 in each case. The IC50 in test [1] amounted to 97 nM. The inhibition was determined as 25% in test [4] and 17% in test [5].

Regarding `CN(C)C[C@@H]1CCC[C@H]1c1ccc2[nH]cc(C#N)c2c1` (racemic), the Ratio IC50 in the test on HEK293 [2] and in the test with HEK293 [3] was more than 100 in each case. In addition, the values for the IC50 in test [1] and in test [6] were 3.8 nM and 8200 nM, respectively. The inhibition in test [4] is -1.7%; in test [5], 50%.

On to `CN(C)C[C@@H]1CCC[C@H]1c1ccc2c(c1)c(C#N)cn2C` (racemic), for which the IC50 in test [1] is 570 nM.

Consider `CN(C)C[C@@H]1C[C@H]1c1ccc2[nH]ccc2c1` (racemic), for which the IC50 in test [1] was more than 1000 nM.

As for `CN(C)C[C@@H]1C[C@H]1c1ccc2[nH]cc(C#N)c2c1` (racemic), the Ratio IC50 in the test on HEK293 [2] and with HEK293 [3] was more than 100 throughout. In addition, the IC50 in test [1] was 6 nM. Further, the inhibition in test [4] amounted to 55%; in test [5], 39%.
